Each molecule was assayed against T1, EED (1-441)-His protein (Homo sapiens, UniProt O75530) (assay: EED-H3K27Me3 peptide competition binding assay by AlphaScreen). Details: IC50 class, Table 4B, read-out: Alpha screen.
T1 construct: 20 nM EED (1-441)-His protein
T1 sequence (O75530 whole entry): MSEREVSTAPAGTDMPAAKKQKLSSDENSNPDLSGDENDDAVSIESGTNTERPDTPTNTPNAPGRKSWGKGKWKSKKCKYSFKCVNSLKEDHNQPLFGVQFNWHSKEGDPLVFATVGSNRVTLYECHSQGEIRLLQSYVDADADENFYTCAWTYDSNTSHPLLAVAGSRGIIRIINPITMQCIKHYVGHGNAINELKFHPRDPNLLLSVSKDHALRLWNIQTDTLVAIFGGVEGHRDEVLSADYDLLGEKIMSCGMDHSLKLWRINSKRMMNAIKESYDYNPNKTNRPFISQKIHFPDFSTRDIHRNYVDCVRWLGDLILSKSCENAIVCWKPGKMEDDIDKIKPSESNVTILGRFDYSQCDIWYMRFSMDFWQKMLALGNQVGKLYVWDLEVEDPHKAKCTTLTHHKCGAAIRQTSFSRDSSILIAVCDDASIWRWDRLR
Description: EED-H3K27Me3 Peptide Competition Binding Assay by AlphaScreen (α-Screen):
The compounds at each concentration (2.5 μl of each) were transferred into a 384-well Perkin Elmer OptiPlate-384 white plates. 5 μl of solutions containing 20 nM EED (1-441)-His protein in the buffer (25 mM HEPES, pH 8, 0.02% Tween-20, 0.5% BSA) were added to the wells and then incubated with compound for 15 min. 2.5 μl of solutions containing 20 nM biotin-H3K27Me3 (19-33) peptide in the buffer (25 mM HEPES, pH 8, 0.02% Tween-20, 0.5% BSA) were added to the wells and then incubated with compound for 30 min. AlphaScreen detection beads mix was prepared immediately before use by mixing nickel chelate acceptor beads and streptavidin donor beads in a 1:1 ratio (Perkin Elmer, Product No. 6760619C/M/R) into the buffer described above. Then 10 μl of the detection beads mix was added to the plate and incubated in the dark at RT for 1 h. The final concentration of donor and acceptor beads was 10 μg/ml for each. Plates were read on CLARIOStar plate reader (BMG Labtech) using the AlphaScreen setting adapted for optimal signal detection with a 615 nm filter, after sample excitation at 680 nm. The emission signal at 615 nm was used to quantify compound inhibition. AlphaScreen signals were normalized based on the reading coming from the positive (maximum signal control) and negative controls (minimum signal control) to give percentage of activities left. The data were then fit to a dose response equation to get the IC50 values.
Molecule `CCc1cnc2n1Cc1cc(C(F)(F)F)ncc1-c1cnc(NCc3c(F)ccc4c3CCO4)n3cnc-2c13` [E 37, 5-ethyl-N-((5-fluoro-2,3-dihydrobenzofuran-4-yl)methyl)-8-(trifluoromethyl)-6H-2,3,5a,9,12,13a-hexaazabenzo[4,5]cyclopenta[7,8]cycloocta[1,2,3-cd]inden-13-amine] has an IC50 of 10 to 100 nM.
With `Cc1cc2c(cn1)-c1cnc(NCc3c(F)ccc4c3CCO4)n3cnc(c13)C(=O)N(CC(F)F)C2` [E 9, 4-(2,2-difluoroethyl)-12-(((5-fluoro-2,3-dihydro-benzofuran-4-yl)methyl)amino)-7-methyl-4,5-dihydro-3H-2,4,8,11,12a-pentaazabenzo[4,5] cycloocta[1,2,3-cd]inden-3-one] the IC50 was less than 10 nM.
`Fc1ccc2c(c1CNc1ncc3c4c(ncn14)-c1nccn1Cc1nc(C(F)(F)F)ccc1-3)CCO2` [E 32, N-((5-fluoro-2,3-dihydrobenzofuran-4-yl)methyl)-8-(trifluoromethyl)-6H-2,3,5a,7,12,13a-hexaaza-benzo[4,5]cyclopenta[7,8]cycloocta[1,2,3-cd]inden-13-amine] showed an IC50 of 10 to 100 nM.
In the case of `Cc1onc2c1Cc1cc(C(F)(F)F)ncc1-c1cnc(NCc3c(F)ccc4c3CCO4)n3cnc-2c13` [E 35, N-((5-fluoro-2,3-dihydrobenzofuran-4-yl)methyl)-5-methyl-8-(trifluoromethyl)-6H-4-oxa-2,3,9,12, 13a-pentaazabenzo[4,5]cyclopenta[7,8]cycloocta [1,2,3-cd]inden-13-amine], the IC50 is reported as 10 to 100 nM.
`O=C1c2ncn3c(NCc4c(F)ccc5c4CCO5)ncc(c23)-c2cnc(C(F)(F)F)cc2CN1C1CCC1` [E 5, 4-cyclobutyl-12-(((5-fluoro-2,3-dihydrobenzofuran-4-yl)methyl)amino)-7-(trifluoromethyl)-4,5-dihydro-3H-2,4,8,11,12a-pentaazabenzo[4,5] cycloocta[1,2,3-cd]inden-3-one] gave an IC50 of less than 10 nM.
In the case of `Cc1ccc2c(n1)CN(C(C)C)C(=O)c1ncn3c(NCc4c(F)ccc5c4CCO5)ncc-2c13` [E 1, 12-(((5-fluoro-2,3-dihydrobenzofuran-4-yl)methyl)amino)-4-isopropyl-7-methyl-4,5-dihydro-3H-2,4,6,11,12a-pentaazabenzo[4,5]cycloocta[1,2,3-cd] inden-3-one], the IC50 is reported as less than 10 nM.

Same assay, conditions: Table 4A, read-out: Alpha screen
`O=C1c2ncn3c(NCc4c(F)ccc5c4CCO5)ncc(c23)-c2ccc(C(F)(F)F)cc2CN1CCF` [Compound 61, 12-(((5-fluoro-2,3-dihydrobenzofuran-4-yl)methyl)amino)-4-(2-fluoroethyl)-7-(trifluoromethyl)-4,5-dihydro-3H-2,4,11,12a-tetraazabenzo[4,5] cycloocta[1,2,3-cd]inden-3-one] was tested, and the IC50 was 1.19 nM.
With `O=C1c2ncn3c(NCc4c(F)ccc5c4CCO5)ncc(c23)-c2ccc(C(F)(F)F)cc2CN1CC1CCOCC1` [Compound 66, 12-(((5-fluoro-2,3-dihydrobenzofuran-4-yl)methyl)amino)-4-((tetrahydro-2H-pyran-4-yl)methyl)-7-(trifluoromethyl)-4,5-dihydro-3H-2,4,11,12a-tetra-azabenzo[4,5]cycloocta[1,2,3-cd]inden-3-one] the IC50 was 3.61 nM.
For `O=C1NCc2cc(C(F)(F)F)ncc2-c2cnc(NCc3c(F)ccc4c3CCO4)n3cnc1c23` [Compound 22, 12-(((5-fluoro-2,3-dihydrobenzofuran-4-yl)methyl)amino)-7-(trifluoromethyl)-4,5-dihydro-3H-2,4,8, 11,12a-pentaazabenzo[4,5]cycloocta[1,2,3-cd] inden-3-one], the IC50 was 0.67 nM.
Molecule `O=C1OCc2ccc(C(F)(F)F)cc2-c2cnc(NCc3c(F)ccc4c3CCO4)n3cnc1c23` [Compound 24, 12-(((5-fluoro-2,3-dihydrobenzofuran-4-yl)methyl)amino)-8-(trifluoromethyl)-3H,5H-4-oxa-2,11,12a-triazabenzo[4,5]cycloocta[1,2,3-cd]inden-3-one] has an IC50 of 4.75 nM.
Molecule `O=C1OCc2cc(C(F)(F)F)ccc2-c2cnc(NCc3cccc4c3OCO4)n3cnc1c23` [Compound 27, 12-((benzo[d][1,3]dioxol-4-ylmethyl)amino)-7-(trifluoromethyl)-3H,5H-4-oxa-2,11,12a-triazabenzo [4,5]cycloocta[1,2,3-cd]inden-3-one] has an IC50 of 5.87 nM.
With `CC(F)(F)CN1Cc2nc(C(F)(F)F)ccc2-c2cnc(NCc3c(F)ccc4c3CCO4)n3cnc(c23)C1=O` [Compound 77, 4-(2,2-difluoropropyl)-12-(((5-fluoro-2,3-dihydrobenzofuran-4-yl)methyl)amino)-7-(trifluoromethyl)-4,5-dihydro-3H-2,4,6,11,12a-pentaazabenzo[4,5] cycloocta[1,2,3-cd]inden-3-one] the IC50 was 1.9 nM.
`O=C1OCc2ncccc2-c2cnc(NCc3c(F)ccc4occc34)n3cnc1c23` [Compound 10, 12-(((5-fluorobenzofuran-4-yl)methyl)amino)-3H, 5H-4-oxa-2,6,11,12a-tetraazabenzo[4,5]cycloocta [1,2,3-cd]inden-3-one] showed an IC50 of 1.11 nM.
For `O=C1NCc2ccc(C(F)(F)F)cc2-c2cnc(NCc3c(F)ccc4c3CCO4)n3cnc1c23` [Compound 26, 12-(((5-fluoro-2,3-dihydrobenzofuran-4-yl)methyl)amino)-8-(trifluoromethyl)-4,5-dihydro-3H-2,4,11, 12a-tetraazabenzo[4,5]cycloocta[1,2,3-cd]inden-3-one], the IC50 was 9.84 nM.
Molecule `O=C1OCc2cc(F)ccc2-c2cnc(NCc3c(F)ccc4c3CCO4)n3cnc1c23` [Compound 7, 7-fluoro-12-(((5-fluoro-2,3-dihydrobenzofuran-4-yl)methyl)amino)-3H,5H-4-oxa-2,11,12a-triazabenzo [4,5]cycloocta[1,2,3-cd]inden-3-one] has an IC50 of 0.61 nM.
In the case of `Cc1nc2c(s1)-c1cnc(NCc3c(F)ccc4c3CCO4)n3cnc(c13)C(=O)N(C1CC1)C2` [Compound 86, 4-cyclopropyl-11-(((5-fluoro-2,3-dihydrobenzofuran-4-yl)methyl)amino)-7-methyl-4,5-dihydro-3H-8-thia-2,4,6,10,11a-pentaazacyclopenta[4,5] cycloocta[1,2,3-cd]inden-3-one], the IC50 is reported as 2.56 nM.
In the case of `O=C1c2ncn3c(NCc4c(F)ccc5c4CCO5)ncc(c23)-c2ccc(C(F)(F)F)nc2CN1C1CCOCC1` [Compound 51, 12-(((5-fluoro-2,3-dihydrobenzofuran-4-yl)methyl)amino)-4-(tetrahydro-2H-pyran-4-yl)-7-(trifluoromethyl)-4,5-dihydro-3H-2,4,6,11, 12a-pentaazabenzo [4,5]cycloocta[1,2,3-cd]inden-3-one], the IC50 is reported as 0.7 nM.
`O=C1NCc2ccc(F)cc2-c2cnc(NCc3c(F)ccc4c3CCO4)n3cnc1c23` [Compound 23, 8-fluoro-12-(((5-fluoro-2,3-dihydrobenzofuran-4-yl)methyl)amino)-4,5-dihydro-3H-2,4,11,12a-tetra azabenzo[4,5]cycloocta[1,2,3-cd]inden-3-one] was tested, and the IC50 was 1.18 nM.
In the case of `O=C1OCc2ncccc2-c2cnc(NCc3c(F)ccc4c3CCO4)n3cnc1c23` [Compound 12, 12-(((5-fluoro-2,3-dihydrobenzofuran-4-yl)methyl)amino)-3H,5H-4-oxa-2,6,11,12a-tetraazabenzo[4,5]cycloocta[1,2,3-cd]inden-3-one], the IC50 is reported as 0.34 nM.
`CC(C)(O)CN1Cc2nc(C(F)(F)F)ccc2-c2cnc(NCc3c(F)ccc4c3CCO4)n3cnc(c23)C1=O` [Compound 58, 12-(((5-fluoro-2,3-dihydrobenzofuran-4-yl)methyl)amino)-4-(2-hydroxy-2-methylpropyl)-7-(trifluoro-methyl)-4,5-dihydro-3H-2,4,6,11,12a-pentaazabenzo [4,5]cycloocta[1,2,3-cd]inden-3-one] was tested, and the IC50 was 2.74 nM.
`O=C1NCc2c(F)cccc2-c2cnc(NCc3c(F)ccc4c3CCO4)n3cnc1c23` [Compound 20, 6-fluoro-12-(((5-fluoro-2,3-dihydrobenzofuran-4-yl)methyl)amino)-4,5-dihydro-3H-2,4,11,12a-tetra azabenzo[4,5]cycloocta[1,2,3-cd]inden-3-one] showed an IC50 of 0.61 nM.
`CN1Cc2cc(C(F)(F)F)ncc2-c2cnc(NCc3c(F)ccc4c3CCO4)n3cnc(c23)C1=O` [Compound 34, 12-(((5-fluoro-2,3-dihydrobenzofuran-4-yl)methyl)amino)-4-methyl-7-(trifluoromethyl)-4,5-dihydro-3H-2,4,8,11,12a-pentaazabenzo[4,5]cycloocta [1,2,3-cd]inden-3-one] showed an IC50 of 0.67 nM.
With `O=C1c2ncn3c(NCc4c(F)ccc5c4CCO5)ncc(c23)-c2ccsc2CN1C1CC1` [Compound 88, 4-cyclopropyl-11-(((5-fluoro-2,3-dihydrobenzofuran-4-yl)methyl)amino)-4,5-dihydro-3H-6-thia-2,4, 10,11a-tetraazacyclopenta[4,5]cycloocta[1,2,3-cd] inden-3-one] the IC50 was 12.3 nM.
For `O=C1c2ncn3c(NCc4c(F)ccc5c4CCO5)ncc(c23)-c2cnc(C(F)(F)F)cc2CN1CC1(O)CC1` [Compound 43, 12-(((5-fluoro-2,3-dihydrobenzofuran-4-yl)methyl)amino)-4-((1-hydroxycyclopropyl)methyl)-7-(trifluoromethyl)-4,5-dihydro-3H-2,4,8,11,12a-pentaazabenzo[4,5]cycloocta[1,2,3-cd]inden-3-one], the IC50 was 1.05 nM.

Reference: patent US20240316051A1, “A PHARMACEUTICAL COMBINATION AND USE THEREOF” (Ascentage Pharma (Suzhou) Co., Ltd., priority 2021, published 2024)
